Literature values in US20020028759A1, “Detergent compositions” (Unilever Home & Personal Care USA, Division of Conopco, Inc., priority 1999, published 2002).
Like-named read-outs stand apart in the source and are kept apart here.

Conditions: 20° C.
[1] = other common materials, by contrast

Row | Water Solubility (g/100 g) (highly water-soluble materials) | SMILES | Water Solubility (g/100 g) [1] [g/100 g]
1 | – | O=BO[O-].[Na+] [Sodium perborate anhydrous] | 3.7
2 | – | O=P(O)(O)OP(=O)(O)OP(=O)(O)O [Sodium tripolyphosphate anhydrous] | 15
3 | >100 | NC(N)=O [Urea] | –
